We go through four sequences from patent US11179450B2, “Long chain antigen containing interepitope sequence that promotes antigen presentation to T cells” (MIE UNIVERSITY, priority 2013, dated 2021).

What all share (type): in vivo, BALB/c mice
Test [1] relates to mouse fibrosarcoma cell line CMS5a. Kind of test: Mouse tumor growth test. As to conditions: FIG. 2; single dose of vaccine with CpG oligo DNA before subcutaneous CMS5a implantation (prophylactic condition); Student's t test. From the text:
Long chain peptide antigens MEN, all containing three types of mouse CD8+ T cell epitope sequences (MA p265 (Sequence No. 27), NY p81 (Sequence No. 29), and mERK2 9m (Sequence No. 28)), were synthesized. The interepitope sequences between the respective epitopes were respectively six consecutive tyrosines (Y6) (Sequence No. 1), six consecutive glycines (G6) (Sequence No. 2), or six consecutive prolines (P6) (Sequence No. 3). Each long chain peptide antigen was complexed with CHP and administered in a single dose as a vaccine to a mouse. As a control, a short chain peptide vaccine, constituted of just the mERK2 9m peptide, was mixed with Freund's incomplete adjuvant and administered. In the process of administration, CpG oligo DNA was coadministered as an adjuvant. On the day after administration, a mouse fibrosarcoma cell line CMS5a, expressing mERK2 as a tumor antigen and presenting the CD8+ T cell epitope mERK2 9m derived from the same antigen, was implanted subcutaneously and its growth was recorded over time.
A subcloned CMS5a cell line, obtained from a CMS5 cell line isolated from fibrosarcoma induced by administering 3-methylcholanthrene to a BALB/c mouse, expresses mutant ERK2 (mERK2) as a tumor antigen and presents a CD8^+ T cell epitope derived from the mERK2. The CMS5a cell line cultured in a T75 flask (Nunc) was detached using PBS containing 0.5% trypsin and collected in RPMI1640 medium containing 10% FBS. After centrifuging (400×g, 5 minutes, 4° C.), the supernatant was removed, and the cells were rinsed twice with RPMI1640 medium, thereafter suspended in RPMI1640 medium at a concentration of 1×10^6 cells/100 μL, and implanted subcutaneously in BALB/c mice at a dose of 100 μL/individual. The CHP/long chain peptide complexes and the adjuvant were administered 7 days before tumor implantation (prophylactic condition). After tumor implantation, the length and breadth of the tumor were measured and the product thereof was recorded as tumor size. The data in the tumor growth test were compared by Student's t test using Microsoft® Excel® (Microsoft Corporation).

The subject of test [2] is CD8+ T cells specific to MA p265, NY p81 and mERK2 9m. Kind of test: Specific CD8+ T cell induction by CHP/long chain peptide vaccines in mice, intracellular cytokine staining of spleen cells. As to conditions: for induction of specific CD8+ T cells corresponding to all three types of epitopes: FIG. 1, MEN antigens complexed with CHP, subcutaneous, CpG oligo DNA adjuvant, spleen cells one week after final administration. From the text: Long chain peptide antigens MEN, all containing three types of mouse CD8+ T cell epitope sequences (MA p265 (Sequence No. 27), NY p81 (Sequence No. 29), and mERK2 9m (Sequence No. 28)), were synthesized. The interepitope sequences between the respective epitopes were respectively six consecutive tyrosines (Y6) (Sequence No. 1), six consecutive glycines (G6) (Sequence No. 2), six consecutive prolines (P6) (Sequence No. 3), or six consecutive threonines (T6) (Sequence No. 4). Each long chain peptide antigen was complexed with cholesterol-modified pullulan (CHP), which is a type of delivery system, and administered as a vaccine to a mouse. In the process of administration, CpG oligo DNA was coadministered as an adjuvant. Spleen cells were collected one week after the final administration and the frequencies of CD8+ T cells specific to the respective epitope sequences were measured by an intracellular cytokine staining method.
Long chain peptide antigens NME, all containing three types of mouse CD8+ T cell epitope sequences (MA p265 (Sequence No. 27), NY p81 (Sequence No. 29), and mERK2 9m (Sequence No. 28)), were synthesized. The antigens differ from the MEN sequences shown in FIG. 1 in the order of the three types of epitopes. The interepitope sequences between the respective epitopes were respectively six consecutive tyrosines (Y6) (Sequence No. 5), six consecutive glycines (G6) (Sequence No. 6), or six consecutive prolines (P6) (Sequence No. 7). Vaccines containing the respective long chain peptide antigens were administered to mice in the same manner as in FIG. 1 and the frequencies of CD8+ T cells specific to the respective epitope sequences were measured by the intracellular cytokine staining method.
Long chain peptide antigens MEN, ENM, and NME, all containing three types of mouse CD8+ T cell epitope sequences (MA p265 (Sequence No. 27), NY p81 (Sequence No. 29), and mERK2 9m (Sequence No. 28)), were synthesized. MEN, ENM, and […] in the order of the three types of epitopes. The interepitope sequences between the respective epitopes were each six consecutive tyrosines (Y6) (Sequence Nos. 1, 5 and 8). Vaccines containing the respective long chain peptide antigens were administered to mice in the same manner as in FIG. 1 and the frequencies of CD8+ T cells specific to the respective epitope sequences were measured by the intracellular cytokine staining method.
Each long chain peptide was dissolved in dimethyl sulfoxide (DMSO) at a concentration of 10 mg/mL. CHP was dissolved in 6 M urea-containing phosphate buffered saline (PBS) at a concentration of 10 mg/mL 1 mL (10 mg) of the long chain peptide solution and 20 mL (200 mg) of the CHP solution were mixed and left to stand at room temperature overnight in a dark place. The liquid mixture was transferred into a dialysis membrane (molecular weight cutoff: 3,500; Thermo Fisher Scientific, Inc.) and dialyzed for 2 hours to overnight at 4° C. against 0.6 M urea-containing PBS of a volume ratio of not less than 100 times as the dialysis outer solution. Dialysis was then performed for 2 hours to overnight at 4° C. against 0.06 M urea-containing PBS of a volume ratio of not less than 100 times as the dialysis outer solution. Dialysis was performed again for 2 hours to overnight at 4° C. against PBS of a volume ratio of not less than 100 times as the dialysis outer solution. The dialyzed inner solution was collected, filtered through a filtration sterilization filter of 0.45 μm or 0.22 μm pore size, and thereafter the UV absorption at 280 nm was measured to determine the final concentration of the long chain peptide from its molecular extinction coefficient.
Each CHP/long chain peptide complex as the vaccine and the CpG oligo DNA as the adjuvant were administered at the same time to a mouse. Administration was performed by subcutaneous injection on the back of the mouse. […]

Test [3] relates to mERK2 9m specific CD8+ T cells. Kind of test: Specific CD8+ T cell induction in mice, intracellular cytokine staining (mERK2 9m epitope). As to conditions: FIG. 6; comparing one to six tyrosines. Here is the method:
Long chain peptide antigens MEN, all containing three types of mouse CD8+ T cell epitope sequences (MA p265 (Sequence No. 27), NY p81 (Sequence No. 29), and mERK2 9m (Sequence No. 28)), were synthesized. The interepitope sequences between the respective epitopes were one to six consecutive tyrosines (Sequence Nos. 1 and 9-12). Vaccines containing the respective long chain peptide antigens were administered to mice in the same manner as in FIG. 1 and the frequencies of CD8+ T cells specific to the respective epitope sequences were measured by the intracellular cytokine staining method.
Long chain peptide antigens MEN, all containing three types of mouse CD8+ T cell epitope sequences (MA p265 (Sequence No. 27), NY p81 (Sequence No. 29), and mERK2 9m (Sequence No. 28)), were synthesized. The interepitope sequences between the respective epitopes were five to ten consecutive tyrosines (Sequence Nos. 1 and 13-15). Vaccines containing the respective long chain peptide antigens were administered to mice in the same manner as in FIG. 1 and the frequencies of CD8+ T cells specific to the respective epitope sequences were measured by the intracellular cytokine staining method.
Each CHP/long chain peptide complex as the vaccine and the CpG oligo DNA as the adjuvant were administered at the same time to a mouse. Administration was performed by subcutaneous injection on the back of the mouse. As the dose, the CHP/long chain peptide complex was administered at 0.05 to 0.1 mg equivalent of long chain peptide per administration. The CpG oligo DNA was administered at 0.05 mg per administration. One week after the final administration, spleen cells were separated by the following procedure from each vaccine-administered mouse. The spleen was isolated from the mouse and removed of blood by rinsing with RPMI1640 medium. After the spleen was triturated using a glass slide, the released cells were collected in RPMI1640 medium. After centrifuging (400×g, 5 minutes, 4° C.), the supernatant was removed and the cells were treated for 1 minute by adding 2 mL of ACK solution. […]

Test [4] concerns F4/80+ cells (macrophages). The experiment in a line: Uptake of FAM-labeled long chain peptide antigens in individual animals, regional lymph node macrophages. As to conditions: FIG. 9, complexed with CHP, subcutaneous, 16 hours after administration. As for the experimental part:
The same FAM-labeled long chain peptide antigens as those in FIG. 8 were complexed with CHP and administered subcutaneously to mice. After 16 hours, cells were collected from a regional lymph node of the administration site, and the fluorescence uptakes into dendritic cells and mouse macrophages were measured by flow cytometry with the P4 fraction in the figure being deemed to correspond to the dendritic cells and the P5 fraction in the figure being deemed to correspond to the macrophages.
A test of uptake of long chain peptide antigens by antigen-presenting cells in individual animals was performed as follows. Each long chain peptide was fluorescence-labeled, complexed with a CHP nanogel, administered subcutaneously to BALB/c mice. 16 hours after administration, cells were collected from lymph nodes and after staining with the anti-CD11c antibody and the anti-F4/80 antibody, the uptake of the fluorescence-labeled long chain peptide antigens by CD11c^+ cells (dendritic cells) and F4/80^+ cells (macrophages) was analyzed by flow cytometry.

For the sequence “QYIHSANVL [mERK2 9m, reference compound]”, in test [1], the “growth of the tumor” value is on record as “significant suppression of tumor growth was not observed”.
“SNPARYEFLYYYYQYIHSANVLYYYYRGPESRLL (Long chain peptide antigen, containing three types of mouse CD8+ T cell epitope sequences (MA p265, NY p81, and mERK2 9m)) [MEN(Y4)]”: the “number of tyrosines of the interepitope sequence, judged in view of the results for the three types of epitopes” value in test [2] (FIG. 6, comparing one to six tyrosines) is “satisfactory”. The “induction of specific CD8+ T cells, mERK2 9m (second epitope)” value in test [3] is “highest”.
Consider “SNPARYEFLPPPPPPQYIHSANVLPPPPPPRGPESRLL (Long chain peptide antigen, containing three types of mouse CD8+ T cell epitope sequences (MA p265, NY p81, and mERK2 9m)) [MEN(P6)]”, for which, in test [2], the “induction of specific CD8+ T cells corresponding to all three types of epitopes” value is “clearly weak”. The “fluorescence uptake into macrophages of the regional lymph node” value in test [4] was “hardly observed”. For the same sequence, the “growth of the tumor” value in test [1] is “significant suppression of tumor growth was not observed”.
For “SNPARYEFLGGGGGGQYIHSANVLGGGGGGRGPESRLL (Long chain peptide antigen, containing three types of mouse CD8+ T cell epitope sequences (MA p265, NY p81, and mERK2 9m)) [MEN(G6)]”, in test [2], the “induction of specific CD8+ T cells corresponding to all three types of epitopes” value was “clearly weak”. The “fluorescence uptake into macrophages of the regional lymph node” value in test [4] is recorded as “hardly observed”. Also, in test [1], the “growth of the tumor” value is “significant suppression of tumor growth was not observed”.
